Results taken from ChEMBL document CHEMBL1147286, “7-O-methylhorminone and other cytotoxic diterpene quinones from Lepechinia bullata” (1989).
≈ marks a conversion by molar mass, not a printed value.

Tests used:
P388 = assay: Cytotoxicity against mouse P388 cells; assay type: functional; settings: read-out: ED50 (the source's name)
KB = assay: Cytotoxicity against human KB cells; assay type: functional; settings: read-out: ED50 (the source's name)

| SMILES | EC50 (P388) [µg/mL] | EC50 (KB) [µg/mL] |
| --- | --- | --- |
| CC(C)C1=C(O)C(=O)C2=C(C=C[C@H]3C(C)(C)CCC[C@]23C)C1=O | 1.6 (≈ 5.09 µM) | 5.7 (≈ 18.1 µM) |
| CO[C@@H]1C[C@H]2C(C)(C)CCC[C@]2(C)C2=C1C(=O)C(C(C)C)=C(O)C2=O | 4.8 (≈ 13.9 µM) | 13 (≈ 37.5 µM) |
| CC(C)C1=C(O)C(=O)C2=C(C1=O)[C@H](O)C[C@H]1C(C)(C)CCC[C@]21C [HORMINONE] | 4.6 (≈ 13.8 µM) | 20.2 (≈ 60.8 µM) |
